Assay [1] is described as follows: Anti-inflammatory activity against human derived high respond PBMC cells assessed as inhibition in stimulated IL-5 cytokine release at 10 uM incubated for 2 hrs in the presence of LPS/SEB/aCD28 by Luminex based sandwich immunoassay relative to control. It counts as functional.
In assay [2] the test system is eIF-2-alpha kinase GCN2 (Homo sapiens), Q9P2K8 [S808G]. Nature of the assay: Inhibition of GCN2 S808G mutant kinase domain 2 (unknown origin) assessed as remaining activity at 1 uM by Kinome scan method relative to control.
The subject of assay [3] is Phosphatidylinositol 4,5-bisphosphate 3-kinase catalytic subunit alpha isoform (Homo sapiens), P42336 [H1047Y]. Nature of the assay: Inhibition of PIK3CA H1047Y mutant (unknown origin) assessed as remaining activity at 1 uM by Kinome scan method relative to control.
The target in assay [4] is Discoidin domain-containing receptor 2 (Homo sapiens) (UniProt Q16832). The experiment in a line: Inhibition of human DDR2 assessed as residual activity at 1 uM using poly(Ala,Glu,Lys,Tyr)6:2:5:1 as substrate in presence of 33P-ATP by ProQinase assay relative to control.
Assay [5] deals with Mast/stem cell growth factor receptor Kit (Homo sapiens), P10721 [V559D]. Nature of the assay: Inhibition of KIT V559D mutant (unknown origin) assessed as remaining activity at 1 uM by Kinome scan method relative to control.
The target in assay [6] is Serine/threonine-protein kinase TAO2 (Homo sapiens) (UniProt Q9UL54). Nature of the assay: Inhibition of human TAOK2 assessed as residual activity at 1 uM using casein as substrate in presence of 33P-ATP by ProQinase assay relative to control.
Chain of Serine/threonine-protein kinase TAO2 (Homo sapiens) (Q9UL54 whole entry): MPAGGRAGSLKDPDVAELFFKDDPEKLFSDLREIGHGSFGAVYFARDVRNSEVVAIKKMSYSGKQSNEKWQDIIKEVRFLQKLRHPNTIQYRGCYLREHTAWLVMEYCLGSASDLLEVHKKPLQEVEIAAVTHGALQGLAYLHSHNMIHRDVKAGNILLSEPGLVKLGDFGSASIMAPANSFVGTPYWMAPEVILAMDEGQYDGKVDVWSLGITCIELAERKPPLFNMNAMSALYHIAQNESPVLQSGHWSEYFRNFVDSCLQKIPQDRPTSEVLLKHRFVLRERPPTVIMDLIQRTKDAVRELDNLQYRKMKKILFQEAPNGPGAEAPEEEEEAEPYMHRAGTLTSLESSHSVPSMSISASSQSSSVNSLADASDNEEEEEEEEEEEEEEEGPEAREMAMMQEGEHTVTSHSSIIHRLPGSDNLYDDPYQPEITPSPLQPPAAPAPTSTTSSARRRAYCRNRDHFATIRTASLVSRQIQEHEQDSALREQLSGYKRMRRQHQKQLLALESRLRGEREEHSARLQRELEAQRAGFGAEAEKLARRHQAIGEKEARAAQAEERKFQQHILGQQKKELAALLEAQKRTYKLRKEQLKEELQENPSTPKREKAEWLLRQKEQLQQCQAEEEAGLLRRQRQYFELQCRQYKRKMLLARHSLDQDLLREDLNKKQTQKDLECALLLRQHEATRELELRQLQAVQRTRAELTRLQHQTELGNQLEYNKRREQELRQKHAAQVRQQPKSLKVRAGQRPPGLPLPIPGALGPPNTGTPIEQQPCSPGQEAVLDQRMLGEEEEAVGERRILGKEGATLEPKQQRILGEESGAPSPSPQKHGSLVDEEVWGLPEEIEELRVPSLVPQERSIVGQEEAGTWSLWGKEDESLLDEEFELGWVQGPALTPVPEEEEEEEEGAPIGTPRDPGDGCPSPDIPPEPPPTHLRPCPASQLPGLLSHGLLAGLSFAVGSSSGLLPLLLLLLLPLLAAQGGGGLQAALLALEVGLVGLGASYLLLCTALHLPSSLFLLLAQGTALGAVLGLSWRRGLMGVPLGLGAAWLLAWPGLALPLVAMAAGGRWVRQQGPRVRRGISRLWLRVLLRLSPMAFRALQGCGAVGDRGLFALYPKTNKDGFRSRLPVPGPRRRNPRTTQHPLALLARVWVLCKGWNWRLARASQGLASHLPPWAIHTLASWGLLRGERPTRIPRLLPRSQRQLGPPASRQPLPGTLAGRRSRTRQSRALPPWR
Assay [7] has as its target Serine/threonine-protein kinase PAK 5 (Homo sapiens) (UniProt Q9P286). The experiment in a line: Inhibition of human PAK7 assessed as residual activity at 1 uM using bio-4xCHKT as substrate in presence of 33P-ATP by ProQinase assay relative to control.
The target of assay [8] is Serine/threonine-protein kinase 16 (Homo sapiens) (UniProt O75716). Nature of the assay: Inhibition of human TSF1 assessed as residual activity at 1 uM using casein as substrate in presence of 33P-ATP by ProQinase assay relative to control.
Chain of Serine/threonine-protein kinase 16 (Homo sapiens) (O75716 whole entry): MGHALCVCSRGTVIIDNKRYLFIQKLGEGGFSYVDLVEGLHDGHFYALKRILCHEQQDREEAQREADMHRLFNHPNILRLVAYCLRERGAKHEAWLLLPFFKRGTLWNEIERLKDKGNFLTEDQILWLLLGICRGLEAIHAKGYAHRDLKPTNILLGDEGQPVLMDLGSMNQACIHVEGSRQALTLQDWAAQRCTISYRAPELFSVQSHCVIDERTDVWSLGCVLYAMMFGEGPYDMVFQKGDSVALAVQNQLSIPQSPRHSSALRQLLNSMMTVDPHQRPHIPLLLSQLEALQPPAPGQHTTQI
Assay [9] deals with Serine/threonine-protein kinase Sgk3 (Homo sapiens) (UniProt Q96BR1). The experiment in a line: Inhibition of human SGK3 assessed as residual activity at 1 uM using RBER-GSK3(14-27) as substrate in presence of 33P-ATP by ProQinase assay relative to control.
Assay [10] concerns Hepatocyte growth factor receptor (Homo sapiens), P08581 [D1228N]. Nature of the assay: Inhibition of human MET D1228N mutant assessed as residual activity at 1 uM using poly(Ala,Glu,Lys,Tyr)6:2:5:1 as substrate in presence of 33P-ATP by ProQinase assay relative to control.
Assay [11] has as its target Insulin receptor-related protein (Homo sapiens) (UniProt P14616). The experiment in a line: Inhibition of human INSRR assessed as residual activity at 1 uM using poly(Ala,Glu,Lys,Tyr)6:2:5:1 as substrate in presence of 33P-ATP by ProQinase assay relative to control.
Assay [12] deals with Epidermal growth factor receptor (Homo sapiens), P00533 [L861Q]. Nature of the assay: Inhibition of EGFR L861Q mutant (unknown origin) assessed as remaining activity at 1 uM by Kinome scan method relative to control.
In assay [13] the target is Ephrin type-A receptor 5 (Homo sapiens) (UniProt P54756). The experiment in a line: Inhibition of EPHA5 (unknown origin) assessed as remaining activity at 1 uM by Kinome scan method relative to control.
Assay [14] has as its target T1, Tyrosine-protein kinase ITK/TSK (Homo sapiens) (UniProt Q08881).
T1 sequence (whole entry): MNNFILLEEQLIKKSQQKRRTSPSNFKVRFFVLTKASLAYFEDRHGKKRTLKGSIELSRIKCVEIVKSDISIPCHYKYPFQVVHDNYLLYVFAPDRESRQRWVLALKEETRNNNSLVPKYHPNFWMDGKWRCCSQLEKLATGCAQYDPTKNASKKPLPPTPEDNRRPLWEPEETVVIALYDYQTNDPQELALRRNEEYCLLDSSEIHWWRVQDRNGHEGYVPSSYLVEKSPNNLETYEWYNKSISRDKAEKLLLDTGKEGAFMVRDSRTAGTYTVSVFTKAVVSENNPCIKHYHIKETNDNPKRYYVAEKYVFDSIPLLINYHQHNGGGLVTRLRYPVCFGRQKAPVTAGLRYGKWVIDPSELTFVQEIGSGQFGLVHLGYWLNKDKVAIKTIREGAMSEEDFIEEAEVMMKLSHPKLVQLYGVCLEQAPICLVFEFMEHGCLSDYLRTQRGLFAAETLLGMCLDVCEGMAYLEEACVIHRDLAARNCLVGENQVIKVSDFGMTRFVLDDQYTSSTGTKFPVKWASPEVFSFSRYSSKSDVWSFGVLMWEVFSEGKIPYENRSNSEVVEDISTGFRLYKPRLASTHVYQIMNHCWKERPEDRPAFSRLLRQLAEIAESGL
The experiment in a line: Inhibition of human ITK assessed as residual activity at 1 uM using polyEY as substrate in presence of 33P-ATP by ProQinase assay relative to control.

The subject of the next assay is Mus musculus. The experiment in a line: In vivo anti-inflammatory activity in Gal/LPS induced mouse assessed as TNF-alpha release at 3 mg/kg, po administered for 1 hrs. It counts as functional.
Assay [15] has as its target DNA-dependent protein kinase catalytic subunit (Homo sapiens) (UniProt P78527). Nature of the assay: Inhibition of human DNPK1 assessed as residual activity at 1 uM using RBER-GSK3 as substrate in presence of 33P-ATP by ProQinase assay relative to control.
In assay [16] the target is Insulin-like growth factor 1 receptor (Homo sapiens) (UniProt P08069). Nature of the assay: Inhibition of human IGF1R assessed as residual activity at 1 uM using polyEY as substrate in presence of 33P-ATP by ProQinase assay relative to control.
Chain of Insulin-like growth factor 1 receptor (Homo sapiens) (P08069 31-736 limits assumed): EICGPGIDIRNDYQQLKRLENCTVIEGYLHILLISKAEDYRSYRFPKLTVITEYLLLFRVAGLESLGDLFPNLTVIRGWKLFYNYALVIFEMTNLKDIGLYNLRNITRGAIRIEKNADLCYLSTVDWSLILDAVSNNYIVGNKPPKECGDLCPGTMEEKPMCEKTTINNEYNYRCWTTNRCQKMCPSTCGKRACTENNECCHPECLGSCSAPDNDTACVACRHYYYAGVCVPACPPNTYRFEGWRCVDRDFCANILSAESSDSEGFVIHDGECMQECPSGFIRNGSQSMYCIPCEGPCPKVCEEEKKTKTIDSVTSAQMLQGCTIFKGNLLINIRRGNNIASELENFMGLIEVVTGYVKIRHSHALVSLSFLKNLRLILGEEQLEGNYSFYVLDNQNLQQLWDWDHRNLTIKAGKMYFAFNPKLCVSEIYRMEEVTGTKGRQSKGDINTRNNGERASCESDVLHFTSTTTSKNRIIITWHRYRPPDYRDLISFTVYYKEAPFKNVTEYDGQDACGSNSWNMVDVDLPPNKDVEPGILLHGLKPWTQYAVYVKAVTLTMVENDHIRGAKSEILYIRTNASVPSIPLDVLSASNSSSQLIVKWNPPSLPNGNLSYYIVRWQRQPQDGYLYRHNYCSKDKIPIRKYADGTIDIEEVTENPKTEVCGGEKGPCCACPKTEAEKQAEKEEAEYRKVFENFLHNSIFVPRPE
Chain of Insulin-like growth factor 1 receptor (Homo sapiens) (P08069 741-1367 limits assumed): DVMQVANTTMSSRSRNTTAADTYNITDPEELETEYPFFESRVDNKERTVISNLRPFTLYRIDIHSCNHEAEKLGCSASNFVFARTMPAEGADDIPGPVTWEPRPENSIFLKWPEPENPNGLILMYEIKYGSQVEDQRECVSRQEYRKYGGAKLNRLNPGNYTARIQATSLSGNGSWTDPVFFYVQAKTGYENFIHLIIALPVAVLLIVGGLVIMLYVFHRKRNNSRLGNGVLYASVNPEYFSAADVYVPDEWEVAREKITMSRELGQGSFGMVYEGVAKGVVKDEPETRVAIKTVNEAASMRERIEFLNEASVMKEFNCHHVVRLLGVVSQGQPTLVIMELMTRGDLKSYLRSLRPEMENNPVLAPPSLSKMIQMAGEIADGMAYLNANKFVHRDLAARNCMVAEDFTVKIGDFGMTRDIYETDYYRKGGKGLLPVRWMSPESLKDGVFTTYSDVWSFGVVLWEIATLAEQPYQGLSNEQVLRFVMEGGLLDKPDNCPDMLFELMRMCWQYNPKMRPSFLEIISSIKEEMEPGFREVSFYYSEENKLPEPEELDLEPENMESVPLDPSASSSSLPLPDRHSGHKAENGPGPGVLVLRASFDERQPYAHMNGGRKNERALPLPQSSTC
The target of assay [17] is Mitogen-activated protein kinase 10 (Homo sapiens) (UniProt P53779). Nature of the assay: Inhibition of human JNK3 assessed as residual activity at 1 uM using ATF2 as substrate in presence of 33P-ATP by ProQinase assay relative to control.
Chain of Mitogen-activated protein kinase 10 (Homo sapiens) (P53779 whole entry): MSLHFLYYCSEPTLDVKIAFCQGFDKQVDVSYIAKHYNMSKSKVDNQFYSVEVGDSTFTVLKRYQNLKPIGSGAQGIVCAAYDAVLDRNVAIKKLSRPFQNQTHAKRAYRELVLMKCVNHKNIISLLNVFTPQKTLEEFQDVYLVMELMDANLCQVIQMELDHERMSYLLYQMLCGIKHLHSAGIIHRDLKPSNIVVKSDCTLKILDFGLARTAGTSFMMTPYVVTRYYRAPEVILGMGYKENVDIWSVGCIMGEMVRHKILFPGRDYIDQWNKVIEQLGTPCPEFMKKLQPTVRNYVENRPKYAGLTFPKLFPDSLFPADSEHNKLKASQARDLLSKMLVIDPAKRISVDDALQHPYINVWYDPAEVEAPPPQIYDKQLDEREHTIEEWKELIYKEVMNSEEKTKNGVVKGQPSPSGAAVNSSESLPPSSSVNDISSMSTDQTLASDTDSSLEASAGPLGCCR
In assay [18] the target is Receptor-type tyrosine-protein kinase FLT3 (Homo sapiens) (UniProt P36888). The experiment in a line: Inhibition of human FLT3 assessed as residual activity at 1 uM using Poly(Ala,Glu,Lys,Tyr)6:2:5:1 as substrate in presence of 33P-ATP by ProQinase assay relative to control.
Chain of Receptor-type tyrosine-protein kinase FLT3 (Homo sapiens) (P36888 whole entry): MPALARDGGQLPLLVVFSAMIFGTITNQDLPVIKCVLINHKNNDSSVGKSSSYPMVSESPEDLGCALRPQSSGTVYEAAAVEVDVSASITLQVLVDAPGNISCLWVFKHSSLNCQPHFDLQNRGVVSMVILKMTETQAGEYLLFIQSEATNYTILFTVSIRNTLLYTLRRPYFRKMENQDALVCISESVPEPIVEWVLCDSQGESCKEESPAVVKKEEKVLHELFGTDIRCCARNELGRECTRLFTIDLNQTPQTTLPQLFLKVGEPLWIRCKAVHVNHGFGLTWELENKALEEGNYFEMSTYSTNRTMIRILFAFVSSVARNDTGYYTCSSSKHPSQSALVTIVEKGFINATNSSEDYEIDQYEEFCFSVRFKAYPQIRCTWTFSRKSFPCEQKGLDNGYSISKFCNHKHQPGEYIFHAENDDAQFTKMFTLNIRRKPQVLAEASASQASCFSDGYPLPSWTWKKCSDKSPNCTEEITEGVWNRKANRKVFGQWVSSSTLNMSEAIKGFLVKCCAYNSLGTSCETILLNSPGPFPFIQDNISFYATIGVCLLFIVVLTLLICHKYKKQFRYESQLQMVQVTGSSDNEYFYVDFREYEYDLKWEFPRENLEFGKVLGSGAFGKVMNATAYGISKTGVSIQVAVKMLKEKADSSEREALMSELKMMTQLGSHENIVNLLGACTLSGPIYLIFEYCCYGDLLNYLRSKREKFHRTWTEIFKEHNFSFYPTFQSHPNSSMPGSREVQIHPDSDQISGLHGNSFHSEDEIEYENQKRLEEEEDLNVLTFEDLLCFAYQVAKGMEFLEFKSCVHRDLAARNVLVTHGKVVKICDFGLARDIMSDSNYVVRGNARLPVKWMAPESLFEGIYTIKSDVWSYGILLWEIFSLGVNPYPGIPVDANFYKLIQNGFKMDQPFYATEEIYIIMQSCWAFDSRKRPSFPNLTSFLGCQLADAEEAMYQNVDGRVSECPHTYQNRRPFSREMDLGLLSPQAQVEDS
Assay [19] addresses Death-associated protein kinase 2 (Homo sapiens) (UniProt Q9UIK4). Nature of the assay: Inhibition of human DAPK2 assessed as residual activity at 1 uM using RB-S6P as substrate in presence of 33P-ATP by ProQinase assay relative to control.
The nature of assay [20]: Anti-inflammatory activity against human derived medium respond PBMC cells assessed as inhibition in stimulated IP-10 chemokine release incubated for 2 hrs in the presence of LPS/SEB/aCD28 by Luminex based sandwich immunoassay. The class given is functional, cell-based.
The target of assay [21] is Hepatocyte growth factor receptor (Homo sapiens) (UniProt P08581). The experiment in a line: Inhibition of human MET assessed as residual activity at 1 uM using poly(Ala,Glu,Lys,Tyr)6:2:5:1 as substrate in presence of 33P-ATP by ProQinase assay relative to control.

Structures are written as SMILES.

Usually inhibition stands for the change of the read-out against control, counted positive when it falls. Usually IC50 stands for the concentration that gives 50% inhibition.

Chain of Serine/threonine-protein kinase PAK 5 (Homo sapiens) (Q9P286 whole entry, looked up): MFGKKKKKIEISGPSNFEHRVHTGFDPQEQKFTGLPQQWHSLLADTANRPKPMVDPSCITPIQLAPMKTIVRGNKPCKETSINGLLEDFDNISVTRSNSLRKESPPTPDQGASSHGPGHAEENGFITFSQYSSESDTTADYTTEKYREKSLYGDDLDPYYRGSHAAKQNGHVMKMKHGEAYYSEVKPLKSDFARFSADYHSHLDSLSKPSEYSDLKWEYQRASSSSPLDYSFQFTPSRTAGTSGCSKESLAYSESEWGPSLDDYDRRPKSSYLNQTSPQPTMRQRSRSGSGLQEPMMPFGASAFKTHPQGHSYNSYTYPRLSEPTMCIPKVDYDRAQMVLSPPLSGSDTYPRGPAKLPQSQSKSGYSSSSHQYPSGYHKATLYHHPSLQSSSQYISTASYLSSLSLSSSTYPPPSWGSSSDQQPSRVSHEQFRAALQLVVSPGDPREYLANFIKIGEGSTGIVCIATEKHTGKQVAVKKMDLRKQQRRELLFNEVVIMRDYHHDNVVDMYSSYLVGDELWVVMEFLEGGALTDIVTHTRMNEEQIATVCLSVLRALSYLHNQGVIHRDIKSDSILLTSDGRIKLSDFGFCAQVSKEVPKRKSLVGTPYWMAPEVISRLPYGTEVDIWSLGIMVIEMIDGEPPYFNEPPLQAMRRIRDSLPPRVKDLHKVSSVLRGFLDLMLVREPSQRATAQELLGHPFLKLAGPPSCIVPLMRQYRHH

On to `O=C1c2ccc(Nc3ccc(F)cc3F)cc2CCc2ccc(OC[C@H](O)CO)cc21` [Skepinone-L], for which, in assay [1], the inhibition at 10 µM is 50%. Besides, the Activity in [2] amounted to 100%; in assay [3] it was 100%; in assay [4] it was 102%; in assay [5], 100%; in [6] it was 102%; in assay [7] it was 87%. For the same compound, the Activity in assay [8] was found to be 94%; in assay [9], 102%; in assay [10] it was 95%; in assay [11], 98%; in [12], 72%; in assay [13], 98%. The Activity in [14] came out at 97%; in the assay on Mus musculus it was 36.3 pg/mL; in assay [15] it was 82%; in assay [16], 98%; in assay [17], 33%; in assay [18] it was 106%. Moreover, the Activity in assay [19] amounted to 88%; in assay [21], 108%. For the same compound, the IC50 in [20] was found to be 5.9 µM.
